Test results from PMC3571899, “M48U1 CD4 mimetic has a sustained inhibitory effect on cell-associated HIV-1 by attenuating virion infectivity through gp120 shedding” (Retrovirology, 2013).

How the values were obtained:
HIV-1 Bal [1] = assay: Antiviral EC50 in PBMCs against HIV-1 Bal; assay type: cell-based; settings: linear regression analysis, one experiment with 6 replicates
H9+ cells = settings: pretreatment of infected cells, syncytium formation; cited from earlier work
Description: We hypothesized that M48U1 associates with gp120 molecules expressed on the cell membrane of infected cells prior to viral budding. If M48U1 dissociates very slowly from its target and is retained after washing, this could cause the production of defective virions. However, if this were the case, one would expect a similar attenuation effect for the tight-binding RT inhibitors UC781 and TMC120.

HIV-1 Bal [2] = assay: Infectivity of de novo virus from pretreated, washed infected PBMCs (memory effect); assay type: cell-based; settings: for relative titer of de novo produced virions: PBMCs pretreated 24 h at 100x EC50, washed, 24 h drug-free, titrated on TZM-bl cells with equal p24, relative to untreated control
Experimental: Figure 1 M48U1 has a memory effect on cell-associated virus. A) The Trojan Horse transmission concept was modeled in vitro using HIV-infected PBMCs which were treated for 24 h with antiretrovirals (ARVs) from different classes at 100x EC50 concentrations. Subsequently, virus production was quantified using a Gag p24 ELISA. To mimic escape from vaginal drug pressure, the infected cells were then incubated in ARV-free medium for three consecutive periods of 24 h. Infectivity of newly produced virions was determined after each period by titration in TZM-bl cells and PBMCs using equal amounts of p24. B) Production of Gag p24 by infected PBMCs during 24 h treatment with eleven ARVs: the non-nucleoside reverse transcriptase inhibitors (NNRTIs; blue) UC781 and TMC120, the nucleotide reverse transcriptase inhibitor tenofovir (PMPA; red), the entry inhibitors (grey) maraviroc (MVC), T-20, C34-chol, griffithsin (GRFT) and M48U1, the protease inhibitors (green) lopinavir (LPV) and saquinavir (SQV), and the integrase inhibitor raltegravir (RAL). Values are expressed relative to untreated control cultures and represent the mean +/− SEM of at least three independent experiments, each carried out in triplicate. C) Bal infectivity of de novo produced virus by pretreated infected PBMCs in absence of drug during three consecutive periods of 24 h. Values are expressed relative to untreated control cultures and represent the mean +/− SEM of at least three independent experiments, each carried out in triplicate. D) Infectivity of de novo produced transmitted/founder viruses REJO and THRO (subtype B) and Bal by M48U1 treated infected PBMCs in absence of drug during three consecutive periods of 24 h. Values are expressed relative to untreated control cultures. E) Infectivity of wild type (black) and M48U1-resistant (red) Bal virus produced during a 24 h period in absence of drug by pretreated infected PBMCs. Values represent the 50% Tissue Culture Infective Dose (TCID50)/ml as measured in one experiment carried out in triplicate.
(§1) PHA/IL-2 stimulated PBMCs were infected with 2 x 10^-3 multiplicity of infection (MOI) of the CCR5-tropic subtype B strain Bal for three days and subsequently washed extensively to remove the inoculum (Figure 1A). Next, cells were incubated for 24 hours with ARVs from different classes at 100x EC50 concentrations for each compound (Table 1). The virions produced from these cultures were then quantified in quadruplicate by a Gag p24 capture ELISA [18].
Next, we evaluated whether these ARVs affected the infectivity of the virus produced. PBMCs were infected as described above and were washed extensively to remove inhibitor and incubated in fresh medium for a new round of viral replication. After 24 h, supernatant was harvested, and then assessed for its ability to infect TZM-bl cells using identical viral inocula (based on equal amounts of Gag p24). The obtained viral titers were expressed as a percentage, relative to the untreated control cultures (Figure 1C). […] A smaller loss in titer was observed after treatment with the PIs saquinavir (relative titer of 47%) and lopinavir (relative titer of 14%), and the carbohydrate binding protein griffithsin (relative titer of 31%). The same samples were assayed in a multi-cycle infectivity assay with PBMCs, with similar results (Figure 1C). […]

HIV-1 Bal infected PBMCs = assay: Gag p24 production by infected PBMCs during 24 h ARV treatment (p24 capture ELISA); assay type: cell-based; settings: 24 h treatment at 100x EC50, Gag p24 capture ELISA
Experimental: Figure 1 M48U1 has a memory effect on cell-associated virus. A) The Trojan Horse transmission concept was modeled in vitro using HIV-infected PBMCs which were treated for 24 h with antiretrovirals (ARVs) from different classes at 100x EC50 concentrations. Subsequently, virus production was quantified using a Gag p24 ELISA. To mimic escape from vaginal drug pressure, the infected cells were then incubated in ARV-free medium for three consecutive periods of 24 h. Infectivity of newly produced virions was determined after each period by titration in TZM-bl cells and PBMCs using equal amounts of p24. […] Values represent the 50% Tissue Culture Infective Dose (TCID50)/ml as measured in one experiment carried out in triplicate.
as §1, with “Next, cells were incubated for 24 hours with ARVs from different classes at 100x EC50 concentrations for each compound (Table 1).” left out

[3] = Human immunodeficiency virus 1, PBMC

## Cc1nnc(C(=O)NC(C)(C)c2nc(C(=O)NCc3ccc(F)cc3)c(O)c(=O)n2C)o1 [Raltegravir (RLT)]
HIV-1 Bal [1]; [3]
  EC50: 18 nM

## CC(C)=CCOc1cc(NC(=S)c2ccoc2C)ccc1Cl [UC781]
HIV-1 Bal [1]; [3]
  EC50: 35 nM
H9+ cells
  reduction in the infectivity of de novo produced virus: fivefold reduction
HIV-1 Bal [2]
  relative titer of de novo produced virions: 75%

## Cc1cccc(C)c1OCC(=O)N[C@@H](Cc1ccccc1)[C@@H](O)C[C@H](Cc1ccccc1)NC(=O)[C@H](C(C)C)N1CCCNC1=O [Lopinavir (LPV)]
HIV-1 Bal infected PBMCs
  lower Gag p24 concentration in culture supernatant vs untreated control: 0.5-1 log
HIV-1 Bal [1]; [3]
  EC50: 40 nM
HIV-1 Bal [2]
  relative titer of de novo produced virions: 14%

## Cc1cc(C)c(Nc2ccnc(Nc3ccc(C#N)cc3)n2)c(C)c1 [Dapivirine (TMC120)]
HIV-1 Bal [1]; [3]
  EC50: 5 nM

## C[C@H](Cn1cnc2c(N)ncnc21)OCP(=O)(O)O [Tenofovir (TFV)]
HIV-1 Bal [1]; [3]
  EC50: 4800 nM

## CC(C)(C)NC(=O)[C@@H]1C[C@@H]2CCCC[C@@H]2CN1C[C@@H](O)[C@H](Cc1ccccc1)NC(=O)[C@H](CC(N)=O)NC(=O)c1ccc2ccccc2n1 [Saquinavir (SQV)]
HIV-1 Bal infected PBMCs
  lower Gag p24 concentration in culture supernatant vs untreated control: 0.5-1 log
HIV-1 Bal [1]; [3]
  EC50: 35 nM
HIV-1 Bal [2]
  relative titer of de novo produced virions: 47%

## Griffithsin (GRFT): carbohydrate binding protein, binds glycans on gp120
HIV-1 Bal [1]
  EC50: 1.5 nM
HIV-1 Bal [2]; 72 hours post-exposure, TZM-bl cells and PBMCs
  times less infectious than virions from control cultures: two
HIV-1 Bal [2]
  relative titer of de novo produced virions: 31%
